In this assay the test system is rice cultivar Nipponbare. The experiment in a line: Rice box experiment (plant height). In kind it is in vivo. The settings on record: low phosphate 0.025 mM, 10 μM compound, 13 days after germination. As to the method: All Arabidopsis plant experiments were performed using the Arabidopsis thaliana Columbia-0 background. The Arabidopsis pSPX1::GUS line is described in the […] 2008, 54: 965-975. For rice, the cultivar Nipponbare was used. For maize, the cultivars DKC 2931 and 8104 were used for regular pot experiments and sand-based pot experiments, respectively. For soybean, the cultivar Primus was used. […] The medium was solidified due to the addition of 0.6% Gelrite, unless stated otherwise. […]
Arabidopsis primary root growth experiments were done on MS1/2 on vertical standing plates and roots were measured 11 days after germination. Roots were imaged using a flatbed scanner (EPSON Expression 11000XL) and root length was measured using ImageJ software. Arabidopsis shoot biomass was determined in 11 days after germination and growth on vertical standing plates with modMS. Arabidopsis leaf area was measured 21 days after germination on horizontal plates with modMS medium. Plates were scanned from the top using a flatbed scanner (EPSON Expression 11000XL) and the visible leaf area was measured using ImageJ software. […] Plant height was measured 11 days after germination. […] Plant height was measured 13 days after germination. […]

`CCN(CCCNc1ncnc2nc(N)ccc12)c1ccccc1` [Example 1]: the Plant height is 4.1 cm.

(Values after patent US20240306641A1, “P-BOOSTER” (EUROCHEM ANTWERPEN, priority 2021, published 2024).)
